Measured values taken from the NIST ThermoML archive (doi:10.1021/je400783h).
± gives the expanded uncertainty stated by the source.

Conditions: for mass density / vapor or sublimation pressure / viscosity / speed of sound: Liquid; for vapor or sublimation pressure: Ebulliometric method (Recirculating still); for surface tension liquid-gas: Drop volume; for viscosity: Capillary tube (Ostwald / Ubbelohde) method; for speed of sound: Pulse-echo method

Cc1ccc(C=O)o1 [5-methylfurfural]
Conditions | mass density [kg/m3] | speed of sound [m/s] | viscosity [mPa·s]
313.15 K, 7500 kPa | 1093.64 ± 0.62 | – | –
313.15 K, 10000 kPa | 1095.27 ± 0.66 | – | –
313.15 K, 20000 kPa | 1101.5 ± 0.84 | – | –
313.15 K, 30000 kPa | 1107.37 ± 1 | – | –
313.15 K, 40000 kPa | 1112.86 ± 1.2 | – | –
313.15 K, 50000 kPa | 1118.1 ± 1.5 | – | –
313.15 K, 60000 kPa | 1123.12 ± 1.7 | – | –
315.65 K, 101.33 kPa | – | 1383.3 ± 1.2 | 1.402 ± 0.03
318.15 K, 100 kPa | 1083.33 ± 0.49 | – | –
318.15 K, 101.33 kPa | – | 1374.3 ± 1.2 | 1.345 ± 0.029
318.15 K, 2500 kPa | 1085.42 ± 0.53 | – | –
318.15 K, 5000 kPa | 1087.05 ± 0.56 | – | –
318.15 K, 7500 kPa | 1088.71 ± 0.6 | – | –
318.15 K, 10000 kPa | 1090.41 ± 0.64 | – | –
318.15 K, 20000 kPa | 1096.72 ± 0.81 | – | –
318.15 K, 30000 kPa | 1102.74 ± 1 | – | –
318.15 K, 40000 kPa | 1108.39 ± 1.2 | – | –
318.15 K, 50000 kPa | 1113.73 ± 1.4 | – | –
318.15 K, 60000 kPa | 1118.89 ± 1.7 | – | –
320.65 K, 101.33 kPa | – | 1365.3 ± 1.2 | 1.292 ± 0.028
323.15 K, 100 kPa | 1078.33 ± 0.48 | – | –
323.15 K, 101.33 kPa | – | 1356.1 ± 1.2 | 1.241 ± 0.026
323.15 K, 2500 kPa | 1080.39 ± 0.52 | – | –
323.15 K, 5000 kPa | 1082.17 ± 0.55 | – | –
323.15 K, 7500 kPa | 1083.95 ± 0.59 | – | –
323.15 K, 10000 kPa | 1085.56 ± 0.63 | – | –
323.15 K, 20000 kPa | 1092.07 ± 0.79 | – | –
323.15 K, 30000 kPa | 1098.22 ± 0.97 | – | –
323.15 K, 40000 kPa | 1104.01 ± 1.2 | – | –
323.15 K, 50000 kPa | 1109.47 ± 1.4 | – | –
323.15 K, 60000 kPa | 1114.68 ± 1.6 | – | –
325.65 K, 101.33 kPa | – | 1347.3 ± 1.2 | 1.202 ± 0.026
328.15 K, 100 kPa | 1073.32 ± 0.48 | – | –
328.15 K, 101.33 kPa | – | 1338.4 ± 1.2 | 1.151 ± 0.025
328.15 K, 2500 kPa | 1075.43 ± 0.51 | – | –
328.15 K, 5000 kPa | 1077.24 ± 0.54 | – | –
328.15 K, 7500 kPa | 1079.03 ± 0.57 | – | –
328.15 K, 10000 kPa | 1080.7 ± 0.61 | – | –
328.15 K, 20000 kPa | 1087.38 ± 0.77 | – | –
328.15 K, 30000 kPa | 1093.64 ± 0.94 | – | –
328.15 K, 40000 kPa | 1099.55 ± 1.1 | – | –
328.15 K, 50000 kPa | 1105.14 ± 1.3 | – | –
328.15 K, 60000 kPa | 1110.48 ± 1.6 | – | –
330.65 K, 101.33 kPa | – | 1329.5 ± 1.2 | 1.11 ± 0.024
333.15 K, 100 kPa | 1068.3 ± 0.46 | – | –
333.15 K, 101.33 kPa | – | 1320.5 ± 1.2 | 1.072 ± 0.023
333.15 K, 2500 kPa | 1070.05 ± 0.49 | – | –
333.15 K, 5000 kPa | 1072.29 ± 0.53 | – | –
333.15 K, 7500 kPa | 1074.1 ± 0.56 | – | –
333.15 K, 10000 kPa | 1075.84 ± 0.59 | – | –
333.15 K, 20000 kPa | 1082.66 ± 0.74 | – | –
333.15 K, 30000 kPa | 1089.1 ± 0.91 | – | –
333.15 K, 40000 kPa | 1095.12 ± 1.1 | – | –
333.15 K, 50000 kPa | 1100.86 ± 1.3 | – | –
333.15 K, 60000 kPa | 1106.23 ± 1.5 | – | –
335.65 K, 101.33 kPa | – | 1311.6 ± 1.2 | 1.039 ± 0.022
338.15 K, 100 kPa | 1063.25 ± 0.46 | – | –
338.15 K, 101.33 kPa | – | 1302.8 ± 1.2 | 1.002 ± 0.021
338.15 K, 2500 kPa | 1065.43 ± 0.48 | – | –
338.15 K, 5000 kPa | 1067.33 ± 0.51 | – | –
338.15 K, 7500 kPa | 1069.06 ± 0.54 | – | –
338.15 K, 10000 kPa | 1070.99 ± 0.58 | – | –
338.15 K, 20000 kPa | 1077.96 ± 0.72 | – | –
338.15 K, 30000 kPa | 1084.52 ± 0.88 | – | –
338.15 K, 40000 kPa | 1090.69 ± 1.1 | – | –
338.15 K, 50000 kPa | 1096.51 ± 1.3 | – | –
338.15 K, 60000 kPa | 1102.02 ± 1.5 | – | –

Conditions | surface tension liquid-gas [mN/m] | vapor or sublimation pressure [kPa]
313.15 K | – | 0.2 ± 0.1
315.65 K | 38.44 ± 0.27 | –
318.15 K | 38.13 ± 0.27 | 0.3 ± 0.1
320.65 K | 37.78 ± 0.27 | –
323.15 K | 37.51 ± 0.27 | 0.4 ± 0.1
325.65 K | 37.26 ± 0.27 | –
328.15 K | 36.91 ± 0.27 | 0.54 ± 0.1
330.65 K | 36.54 ± 0.26 | –
333.15 K | 36.21 ± 0.26 | 0.74 ± 0.1
335.65 K | 35.92 ± 0.26 | –
338.15 K | 35.57 ± 0.26 | 0.97 ± 0.1
343.15 K | – | 1.3 ± 0.1
348.15 K | – | 1.66 ± 0.1
353.15 K | – | 2.17 ± 0.1
358.15 K | – | 2.76 ± 0.1
363.15 K | – | 3.52 ± 0.1
368.15 K | – | 4.4 ± 0.1
373.15 K | – | 5.52 ± 0.1
378.15 K | – | 6.79 ± 0.1
383.15 K | – | 8.43 ± 0.1
388.15 K | – | 10.2 ± 0.1
393.15 K | – | 12.31 ± 0.1
398.15 K | – | 15 ± 0.1
403.15 K | – | 18 ± 0.1
408.15 K | – | 21.27 ± 0.1
413.15 K | – | 25.33 ± 0.11
418.15 K | – | 30.01 ± 0.11
423.15 K | – | 34.95 ± 0.11
428.15 K | – | 40.57 ± 0.11
433.15 K | – | 47.43 ± 0.12
438.15 K | – | 55.14 ± 0.12
443.15 K | – | 63.39 ± 0.12
448.15 K | – | 72.37 ± 0.13
453.15 K | – | 83.4 ± 0.14

101.33 kPa, Vibrating tube method
Conditions | mass density [kg/m3]
315.65 K | 1085.82 ± 0.31
318.15 K | 1083.33 ± 0.31
320.65 K | 1080.83 ± 0.31
323.15 K | 1078.33 ± 0.31
325.65 K | 1075.83 ± 0.31
328.15 K | 1073.32 ± 0.3
330.65 K | 1070.81 ± 0.3
333.15 K | 1068.3 ± 0.3
335.65 K | 1065.78 ± 0.3
338.15 K | 1063.25 ± 0.3
